Laboratory results: ChEMBL document CHEMBL3525899, “Identification of the cytochrome P450 and other enzymes involved in the in vitro oxidative metabolism of a novel antidepressant, Lu AA21004” (Drug Metab Dispos, 2012)

Key:
Liver microsome [1] = test: Drug level in pooled human liver microsomes treated with Lu AA21004 at 100 uM after 30 to 180 mins by HPLC/MS-MS analysis in presence of NADPH regenerating system with NADP+; type: ADME
Cytochrome P450 2C9 = Cytochrome P450 2C9 (Homo sapiens, UniProt P11712); test: Activity of human recombinant CYP2C9 expressed in microsomes isolated from human AHH-1 cells assessed as enzyme-mediated compound formation treated with Lu AA21004 at 8 to 50 uM after 120 mins by HPLC/MS-MS analysis in presence of NADPH regenerating system with NADP+; type: ADME, cell-free; conditions: 2 h
Chain of Cytochrome P450 2C9 (P11712 whole entry): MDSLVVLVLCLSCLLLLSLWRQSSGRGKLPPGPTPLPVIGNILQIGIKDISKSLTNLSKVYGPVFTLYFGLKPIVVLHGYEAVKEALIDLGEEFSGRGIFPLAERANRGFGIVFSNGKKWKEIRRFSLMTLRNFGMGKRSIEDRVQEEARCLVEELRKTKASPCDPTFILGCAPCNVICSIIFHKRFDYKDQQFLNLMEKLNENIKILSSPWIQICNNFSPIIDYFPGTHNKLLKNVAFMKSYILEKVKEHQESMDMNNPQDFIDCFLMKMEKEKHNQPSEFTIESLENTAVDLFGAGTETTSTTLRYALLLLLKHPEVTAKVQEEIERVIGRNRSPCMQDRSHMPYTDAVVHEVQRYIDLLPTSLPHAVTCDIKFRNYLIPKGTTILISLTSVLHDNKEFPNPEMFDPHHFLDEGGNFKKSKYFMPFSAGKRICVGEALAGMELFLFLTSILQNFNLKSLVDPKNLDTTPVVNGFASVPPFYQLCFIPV

Cytochrome P450 2B6 = target: T1, Cytochrome P450 2B6 (Homo sapiens, UniProt P20813); test: Activity of human recombinant CYP2B6 expressed in microsomes isolated from human AHH-1 cells assessed as enzyme-mediated compound formation treated with Lu AA21004 at 8 to 50 uM after 120 mins by HPLC/MS-MS analysis in presence of NADPH regenerating system with NADP+; type: ADME, cell-free; conditions: 2 h
T1 sequence (P20813 whole entry): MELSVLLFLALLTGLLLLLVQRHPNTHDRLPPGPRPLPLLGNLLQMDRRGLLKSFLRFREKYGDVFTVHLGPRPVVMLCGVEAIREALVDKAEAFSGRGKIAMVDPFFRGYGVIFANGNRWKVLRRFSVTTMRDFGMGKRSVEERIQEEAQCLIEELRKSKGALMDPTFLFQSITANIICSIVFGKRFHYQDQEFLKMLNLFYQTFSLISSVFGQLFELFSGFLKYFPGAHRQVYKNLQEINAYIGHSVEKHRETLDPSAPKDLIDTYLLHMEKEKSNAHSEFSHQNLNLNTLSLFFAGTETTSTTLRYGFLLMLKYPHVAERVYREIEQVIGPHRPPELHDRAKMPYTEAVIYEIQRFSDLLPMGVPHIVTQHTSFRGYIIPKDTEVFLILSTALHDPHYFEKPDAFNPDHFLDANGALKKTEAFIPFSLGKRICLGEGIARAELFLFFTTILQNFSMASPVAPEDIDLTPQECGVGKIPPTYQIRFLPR

Cytochrome P450 2C19 = Cytochrome P450 2C19 (Homo sapiens, UniProt P33261); test: Activity of human recombinant CYP2C19 expressed in microsomes isolated from human AHH-1 cells assessed as enzyme-mediated compound formation treated with Lu AA21004 at 8 to 50 uM after 120 mins by HPLC/MS-MS analysis in presence of NADPH regenerating system with NADP+; type: ADME, cell-free; conditions: 2 h
Chain of Cytochrome P450 2C19 (P33261 whole entry): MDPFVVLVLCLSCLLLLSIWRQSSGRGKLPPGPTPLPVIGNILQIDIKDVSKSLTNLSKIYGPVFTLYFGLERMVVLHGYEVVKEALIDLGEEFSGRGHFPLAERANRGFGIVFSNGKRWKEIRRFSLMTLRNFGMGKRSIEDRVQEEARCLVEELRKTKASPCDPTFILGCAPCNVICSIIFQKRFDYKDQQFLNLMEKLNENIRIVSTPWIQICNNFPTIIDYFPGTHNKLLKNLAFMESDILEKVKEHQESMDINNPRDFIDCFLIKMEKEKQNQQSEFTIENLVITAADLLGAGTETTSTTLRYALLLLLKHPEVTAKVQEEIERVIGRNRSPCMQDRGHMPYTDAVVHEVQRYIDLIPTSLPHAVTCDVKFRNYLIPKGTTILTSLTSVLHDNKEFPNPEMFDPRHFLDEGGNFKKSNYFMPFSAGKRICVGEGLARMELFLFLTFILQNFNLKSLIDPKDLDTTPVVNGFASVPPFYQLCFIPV

Liver microsome [2] = test: Drug level in phenotyped human liver microsomes treated with Lu AA21004 at 8 to 50 uM after 60 mins by HPLC/MS-MS analysis in presence of NADPH regenerating system with NADP+; type: ADME; conditions: 1 h

Measured: Drug metabolism

Cc1ccc(Sc2ccccc2N2CCN(O)CC2)c(C)c1
metabolite_detected: all assays above
